Test results taken from BindingDB's records for doi:10.1021/jm0504961 (Merck Frosst Centre For Therapeutic Research, 2005).

Tests used:
Cathepsin S [1] = target: Cathepsin S (Mouse, UniProt O70370); assay: Enzyme Inhibition Assay
Method: (§1) Prior to the addition of substrate, different concentrations of the inhibitor ranging from 100 uM to 0.2 nM were preincubated for 15 min with enzyme to allow the establishment of the enzyme-inhibitor complex. […] The percent inhibition of the reaction was calculated from a control reaction containing only vehicle. IC50 curves were generated by fitting percent inhibition values to a four parameter logistic model (SOFTMAX PRO, Molecular Devices).

Cathepsin K = target: T1, Cathepsin K (Oryctolagus cuniculus, UniProt P43236); assay: Enzyme Inhibition Assay and Bone Resorption Assay; settings: pH 5.5; 22 °C
T1 sequence (P43236 whole entry): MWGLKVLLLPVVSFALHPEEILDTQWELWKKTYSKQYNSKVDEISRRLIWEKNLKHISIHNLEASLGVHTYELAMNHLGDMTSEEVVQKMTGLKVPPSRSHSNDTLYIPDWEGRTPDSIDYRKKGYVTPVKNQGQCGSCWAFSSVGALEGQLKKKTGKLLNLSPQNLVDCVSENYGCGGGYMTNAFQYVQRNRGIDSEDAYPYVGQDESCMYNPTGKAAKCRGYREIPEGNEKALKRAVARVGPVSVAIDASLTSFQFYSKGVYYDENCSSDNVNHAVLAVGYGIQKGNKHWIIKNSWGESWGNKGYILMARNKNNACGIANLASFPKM
Method: as §1, with “Devices). EC50/IC50 values were obtained from functional rabbit bone resorption assay.” for “Devices).”

Procathepsin L = Procathepsin L (Homo sapiens, UniProt P07711); assay: Enzyme Inhibition Assay and Whole Cell Enzyme Occupancy Assay; settings: pH 5.5; 22 °C
Chain of Procathepsin L (P07711 whole entry): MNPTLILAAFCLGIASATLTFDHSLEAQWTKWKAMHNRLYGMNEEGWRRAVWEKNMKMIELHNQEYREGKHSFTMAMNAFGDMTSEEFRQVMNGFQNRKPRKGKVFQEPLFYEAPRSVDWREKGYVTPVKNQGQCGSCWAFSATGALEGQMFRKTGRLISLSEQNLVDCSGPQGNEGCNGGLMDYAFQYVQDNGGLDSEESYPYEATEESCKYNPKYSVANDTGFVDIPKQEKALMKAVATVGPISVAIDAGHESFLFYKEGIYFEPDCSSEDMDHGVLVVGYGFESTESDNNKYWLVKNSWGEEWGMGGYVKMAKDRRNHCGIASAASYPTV
Method: (§2) Prior to the addition of substrate, different concentrations of the inhibitor ranging from 100 uM to 0.2 nM were preincubated for 15 min with enzyme to allow the establishment of the enzyme-inhibitor complex. The proteolytic cleavage of N-acyl aminocoumarins by cathepsins was conducted in 96-well plate format and the plate read using a Spectramax (Molecular Devices) plate reader. The excitation wavelength was 355 nm and the emission wavelength was 460 nm for peptidyl-AMC substrates. The percent inhibition of the reaction was calculated from a control reaction containing only vehicle. IC50 curves were generated by fitting percent inhibition values to a four parameter logistic model (SOFTMAX PRO, Molecular Devices). EC50/IC50 values were obtained from whole cell enzyme occupancy assays for human cathepsins B (in HepG2 cells), L (in HepG2 cells), and S (in Ramos cells).

Cathepsin S [2] = target: Cathepsin S (Homo sapiens, UniProt P25774); assay: as above; settings: pH 6.5; 22 °C
Chain of Cathepsin S (Homo sapiens, UniProt P25774) (P25774 whole entry): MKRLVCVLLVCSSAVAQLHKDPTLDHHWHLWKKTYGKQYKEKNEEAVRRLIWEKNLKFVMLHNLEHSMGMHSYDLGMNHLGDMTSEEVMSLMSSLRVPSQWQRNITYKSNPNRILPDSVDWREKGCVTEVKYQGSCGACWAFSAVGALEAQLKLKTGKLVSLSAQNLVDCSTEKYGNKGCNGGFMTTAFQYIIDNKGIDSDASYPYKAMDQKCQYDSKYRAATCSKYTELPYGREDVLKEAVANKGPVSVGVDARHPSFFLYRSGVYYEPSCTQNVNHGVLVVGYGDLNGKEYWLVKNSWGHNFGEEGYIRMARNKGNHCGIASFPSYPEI
Method: as §2

Chain of Cathepsin S (Mouse, UniProt O70370) (O70370 whole entry): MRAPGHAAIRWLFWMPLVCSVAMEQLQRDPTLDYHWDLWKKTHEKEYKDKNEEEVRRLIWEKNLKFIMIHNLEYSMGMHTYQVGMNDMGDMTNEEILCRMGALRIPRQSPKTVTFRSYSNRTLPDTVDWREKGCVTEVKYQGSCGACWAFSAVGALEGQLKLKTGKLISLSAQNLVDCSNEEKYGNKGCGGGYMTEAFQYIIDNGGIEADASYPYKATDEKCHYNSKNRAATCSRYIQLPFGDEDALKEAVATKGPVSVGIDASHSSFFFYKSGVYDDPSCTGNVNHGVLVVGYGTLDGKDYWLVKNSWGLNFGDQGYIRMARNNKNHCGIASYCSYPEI

Question: For `CN1CCN(c2nc(-c3ccc(C(=O)NC4(C(=O)NCC(F)(F)F)CCCCC4)cc3)cs2)CC1` [4-[2-(4-methylpiperazin-1-yl)-1,3-thiazol-4-yl]-N-{1-[(2,2,2-trifluoroethyl)carbamoyl]cyclohexyl}benzamide], which EC50 (Cathepsin S [1]) is on record?
Answer: > 10000 nM

Question: Which results are given for `CC(C)C[C@@H](C(=O)NCC#N)c1cccc(-c2ccc(N3CCNCC3)cc2)c1` [(2R)-N-(cyanomethyl)-4-methyl-2-{3-[4-(piperazin-1-yl)phenyl]phenyl}pentanamide]?
Answer: EC50 (Cathepsin K): 149 nM; EC50 (Procathepsin L): 320 nM; EC50 (Cathepsin S [2]): 1340 nM; EC50 (Cathepsin S [1]): 740 nM

Question: Which results are given for `N#CCNC(=O)[C@H](CC1CCCCC1)NC(=O)c1ccccc1` [(2S)-N-(cyanomethyl)-3-cyclohexyl-2-(phenylformamido)propanamide]?
Answer: EC50 (Procathepsin L): 230 nM; EC50 (Cathepsin S [2]): 10 nM; EC50 (Cathepsin S [1]): 40 nM

Question: Which results are given for `CCCN1CCN(c2ccc(C(=O)NC3(C(=O)NCC#N)CCCCC3)cc2)CC1` [N-[1-(cyanomethylcarbamoyl)cyclohexyl]-4-(4-propylpiperazin-1-yl)]?
Answer: EC50 (Procathepsin L): 48 nM; EC50 (Cathepsin S [2]): 2900 nM; EC50 (Cathepsin S [1]): 480 nM

Question: `N#CCNC(=O)C1(NC(=O)c2ccc(N3CCOCC3)cc2)CCCCC1` [N-{1-[(cyanomethyl)carbamoyl]cyclohexyl}-4-(morpholin-4-yl)benzamide] was tested. Which EC50 (Cathepsin K) did it give?
Answer: 580 nM

Question: What about the EC50 (Procathepsin L) of the same compound?
Answer: > 10000 nM

Question: What about the EC50 (Cathepsin S [2]) of the same compound?
Answer: 4800 nM

Question: And the EC50 (Cathepsin S [1])?
Answer: 8500 nM

Question: Which EC50 (Cathepsin K) does the source give for `CN1CCN(c2nc(-c3ccc(C(=O)NC4(C(=O)NCC#N)CCCCC4)cc3)cs2)CC1` [N-{1-[(cyanomethyl)carbamoyl]cyclohexyl}-4-[2-(4-methylpiperazin-1-yl)-1,3-thiazol-4-yl]benzamide] here?
Answer: 5 nM

Question: And the EC50 (Procathepsin L)?
Answer: 340 nM

Question: And the EC50 (Cathepsin S [2])?
Answer: 790 nM

Question: And the EC50 (Cathepsin S [1])?
Answer: 318 nM

Question: Which results are given for `N#CCNC(=O)C1(NC(=O)c2ccc(-c3csc(N4CCOCC4)n3)cc2)CCCCC1` [N-{1-[(cyanomethyl)carbamoyl]cyclohexyl}-4-[2-(morpholin-4-yl)-1,3-thiazol-4-yl]benzamide]?
Answer: EC50 (Cathepsin K): 41 nM; EC50 (Procathepsin L): > 10000 nM; EC50 (Cathepsin S [2]): > 10000 nM; EC50 (Cathepsin S [1]): 6700 nM
